Assay results: patent publication US20250361209A1, “CRYSTAL FORMS OF N-(3-FLUOROPHENYL)-6-(6,7-DIMETHOXYQUINOLIN-4-OXY)-3,4-DIHYDROQUINOLINE-1(2H)-CARBOXAMIDE METHANESULFONATE AND PREPARATION METHOD THEREOF” (Shanghai Yi Feng Biotechnology Co., Ltd., priority 2023, published 2025)
“Also recorded” adds a separate entry of the source.

Assays:
Assay type in all cases: physicochemical
[1] = Solid state stability of the crystalline form C of methanesulfonate (HPLC purity, XRPD); settings: for change in HPLC purity: closed condition 60° C. 24 hours, open condition 25° C./60% RH 1 week or 4 weeks, methanesulfonate
Method: The purity decreased from 99.22 area % to 98.80 area % after the crystalline form C was placed under an open condition in an environment of 40° C./75% RH for 4 weeks, with a 0.38% increase in the impurity at RRT of 0.81.

[2] = Test of influencing factors of crystalline forms A, B and C (total impurity)
Description: Example 3 Test of Influencing Factors of Crystalline Forms A, B and C

[3] = Hygroscopicity, DVS test
Method: The hygroscopicity of the anhydrate crystalline form C of methanesulfonate was evaluated by a DVS test at 0% RH-95% RH at 25° C.

[4] = 60° C./closed condition/24 hours
[5] = Start* (RH tests; stored at −20° C.)
[6] = open condition 40° C./75% RH, 4 weeks

COc1cc2nccc(Oc3ccc4c(c3)CCCN4C(=O)Nc3cccc(F)c3)c2cc1OC [Crystalline form C, N-(3-fluorophenyl)-6-(6,7-dimethoxyquinolin-4-oxy)-3,4-dihydroquinoline-1(2H)-carboxamide methanesulfonate]
solid state stability compared with other crystalline forms [1]: better than that of the crystalline form A and the crystalline form B | Purity, area %, peak 1 RRT 0.42 ([1]; 25° C./60% RH open, 1 week*): 0.02 area % | Purity, area %, peak 2 RRT 0.60-0.61 ([1]; 25° C./60% RH open, 1 week*): 0.04 area % | Purity, area %, peak 3 RRT 0.81 ([1]; 25° C./60% RH open, 1 week*): 0.55 area % | Purity, area %, peak 4 RRT 0.93 ([1]; 25° C./60% RH open, 1 week*): 0.05 area % | Purity, area %, peak 5 RRT 1.00 (main peak) ([1]; 25° C./60% RH open, 1 week*): 99.15 area % | Purity, area %, peak 6 RRT 1.10 ([1]; 25° C./60% RH open, 1 week*): 0.14 area % | Purity, area %, peak 7 RRT 1.27 ([1]; 25° C./60% RH open, 1 week*): 0.06 area % | Purity, area %, peak 1 RRT 0.42 ([1]; 25° C./60% RH open, 4 weeks): 0.02 area % | Purity, area %, peak 2 RRT 0.60-0.61 ([1]; 25° C./60% RH open, 4 weeks): 0.05 area % | Purity, area %, peak 3 RRT 0.81 ([1]; 25° C./60% RH open, 4 weeks): 0.54 area % | Purity, area %, peak 4 RRT 0.93 ([1]; 25° C./60% RH open, 4 weeks): 0.05 area % | Purity, area %, peak 5 RRT 1.00 (main peak) ([1]; 25° C./60% RH open, 4 weeks): 99.14 area % | Purity, area %, peak 6 RRT 1.10 ([1]; 25° C./60% RH open, 4 weeks): 0.14 area % | Purity, area %, peak 7 RRT 1.27 ([1]; 25° C./60% RH open, 4 weeks): 0.06 area % | Purity, area %, peak 1 RRT 0.42 ([1]; 40° C./75% RH open, 1 week*): 0.03 area % | Purity, area %, peak 2 RRT 0.60-0.61 ([1]; 40° C./75% RH open, 1 week*): 0.04 area % | Purity, area %, peak 3 RRT 0.81 ([1]; 40° C./75% RH open, 1 week*): 0.69 area % | Purity, area %, peak 4 RRT 0.93 ([1]; 40° C./75% RH open, 1 week*): 0.04 area % | Purity, area %, peak 5 RRT 1.00 (main peak) ([1]; 40° C./75% RH open, 1 week*): 99.02 area % | Purity, area %, peak 6 RRT 1.10 ([1]; 40° C./75% RH open, 1 week*): 0.13 area % | Purity, area %, peak 7 RRT 1.27 ([1]; 40° C./75% RH open, 1 week*): 0.06 area % | Purity, area %, peak 1 RRT 0.42 ([1]; 40° C./75% RH open, 4 weeks): 0.03 area % | Purity, area %, peak 2 RRT 0.60-0.61 ([1]; 40° C./75% RH open, 4 weeks): 0.08 area % | Purity, area %, peak 3 RRT 0.81 ([1]; 40° C./75% RH open, 4 weeks): 0.86 area % | Purity, area %, peak 4 RRT 0.93 ([1]; 40° C./75% RH open, 4 weeks): 0.05 area % | Purity, area %, peak 5 RRT 1.00 (main peak) ([1]; 40° C./75% RH open, 4 weeks): 98.80 area % | Purity, area %, peak 6 RRT 1.10 ([1]; 40° C./75% RH open, 4 weeks): 0.13 area % | Purity, area %, peak 7 RRT 1.27 ([1]; 40° C./75% RH open, 4 weeks): 0.05 area % | Purity, area %, peak 1 RRT 0.42 [1, 4]: 0.03 area % | Purity, area %, peak 2 RRT 0.60-0.61 [1, 4]: 0.05 area % | Purity, area %, peak 3 RRT 0.81 [1, 4]: 0.55 area % | Purity, area %, peak 4 RRT 0.93 [1, 4]: 0.05 area % | Purity, area %, peak 5 RRT 1.00 (main peak) [1, 4]: 99.12 area % | Purity, area %, peak 6 RRT 1.10 [1, 4]: 0.15 area % | Purity, area %, peak 7 RRT 1.27 [1, 4]: 0.05 area % | Purity, area %, peak 1 RRT 0.42 ([1]; Start (60° C. closed test)): 0.03 area % | Purity, area %, peak 2 RRT 0.60-0.61 ([1]; Start (60° C. closed test)): 0.05 area % | Purity, area %, peak 3 RRT 0.81 ([1]; Start (60° C. closed test)): 0.54 area % | Purity, area %, peak 4 RRT 0.93 ([1]; Start (60° C. closed test)): 0.05 area % | Purity, area %, peak 5 RRT 1.00 (main peak) ([1]; Start (60° C. closed test)): 99.13 area % | Purity, area %, peak 6 RRT 1.10 ([1]; Start (60° C. closed test)): 0.15 area % | Purity, area %, peak 7 RRT 1.27 ([1]; Start (60° C. closed test)): 0.06 area % | Purity, area %, peak 1 RRT 0.42 [1, 5]: 0.02 area % | Purity, area %, peak 2 RRT 0.60-0.61 [1, 5]: 0.03 area % | Purity, area %, peak 3 RRT 0.81 [1, 5]: 0.48 area % | Purity, area %, peak 4 RRT 0.93 [1, 5]: 0.05 area % | Purity, area %, peak 5 RRT 1.00 (main peak) [1, 5]: 99.22 area % | Purity, area %, peak 6 RRT 1.10 [1, 5]: 0.14 area % | Purity, area %, peak 7 RRT 1.27 [1, 5]: 0.06 area % | crystalline form after the stability test (XRPD) ([1]; after stability test): no change in crystalline form | change in HPLC purity ([1]; listed as crystalline form C of methanesulfonate): no significant decrease | change in HPLC purity [1]: No significant change | decrease in purity [1, 6]: 0.42 area % | increase in the impurity at RRT of 0.81 [1, 6]: 0.38% | Total impurity % ([2]; High humidity (RH92.5%), 0 day): 0.66% | Total impurity % ([2]; High humidity (RH92.5%), 10 days): 0.75% | Total impurity % ([2]; High humidity (RH92.5%), 30 days): 0.73% | Total impurity % ([2]; High temperature (60° C.), 0 day, methanesulfonate): 0.66% | Total impurity % ([2]; High temperature (60° C.), 10 days, methanesulfonate): 0.81% | Total impurity % ([2]; High temperature (60° C.), 30 days): 0.85% | Total impurity % ([2]; Illumination (5000 + 500 lux), 0 day, methanesulfonate): 0.66% | Total impurity % ([2]; Illumination (5000 + 500 lux), 10 days, methanesulfonate): 0.83% | Total impurity % ([2]; Illumination (5000 + 500 lux), 30 days, methanesulfonate): 0.89% | hygroscopicity compared with other crystalline forms [3]: better than that of the crystalline form A and the crystalline form B | hygroscopicity classification ([3]; DVS 0% RH-95% RH at 25° C., classification per Chinese Pharmacopoeia 2015): slight hygroscopicity | hygroscopic weight gain ([3]; DVS, 25° C./80% RH): about 0.46% | crystalline form after the DVS test (XRPD) ([3]; after DVS test, listed as crystalline form C of methanesulfonate, methanesulfonate): no change in crystalline form; also recorded: remained unchanged
